From PMC7369637, “Inhibition of Resistance-Refractory P. falciparum Kinase PKG Delivers Prophylactic, Blood Stage, and Transmission-Blocking Antiplasmodial Activity” (Cell Chemical Biology, 2020)
pIC50: −log10 of the molar value. Read-outs that look alike come from different tables or passages of the source.

Tests used:
[1] = test system: Pf Dd2-B2 ABS parasites; assay: 72-h asexual blood stage (ABS) growth inhibition assay, Dd2-B2; assay type: cell-based, Plasmodium falciparum
Protocol: Synchronicity was achieved using three rounds of sorbitol treatment on early rings, spaced 48 h apart, followed by magnetic purification of segmented schizonts following the final sorbitol treatment. Parasites were highly synchronous to within a 3 h window of development. Assays were repeated on at least three independent occasions (each with technical duplicates) and statistical significance was assessed using Mann Whitney U tests.

[2] = test system: early and late stage gametocytes (3D7elo1-pfs16-CBG99); assay: Gametocyte susceptibility, CBG99-luciferase assay; assay type: cell-based; conditions: Plasmodium falciparum
Protocol: This was determined using two separate assays. The first involved MitoTracker staining and high-content imaging. Mature (stage V) gametocytes were generated from NF54 ABS cultures as described elsewhere ([Plouffe et al., 2016]). Briefly, asexual parasites were cultured at 5% hematocrit in O^+ human erythrocytes in serum-containing complete media (RPMI 1640 (Life Technologies), 0.05 mg/ml gentamicin (Life Technologies), 0.014 mg/ml hypoxanthine (Sigma), 38.4 mM HEPES (Sigma), 0.2% (w/v) sodium bicarbonate (Sigma), D-glucose 0.2% (w/v) (Sigma), 3.4 mM sodium hydroxide (Sigma), 4.3% (v/v) heat-inactivated human serum (O^+, Interstate Blood bank), and 0.2% (w/v) AlbuMAX® II (Life Technologies)). Parasites were cultured at 37 °C under low-oxygen conditions (3% O2, 5% CO2, 92% N2) and parasitemias were maintained between 0.5% and 3% in cultures with 5% hematocrit. Ring-stage parasites underwent three rounds of synchronization with 5% (w/v) D-Sorbitol (Sigma), on days -8, -6 and -4 relative to the day of initiating gametocyte production. Trophozoite-stage parasites were shaken overnight at 37°C until day -1. On day -2 only 50% of the media was exchanged to provide additional stress to cultures, whose parasitemias had typically attained 7-10%. Complete media exchange was performed daily from day -1 onwards. Stage V gametocytes were treated with 50 mM N-acetyl glucosamine (Sigma) on days 0-9. […] The second assay assessed gametocyte susceptibility using a luciferase-based assay with 3D7elo1-pfs16-CBG99 transgenic parasites ([Cevenini et al., 2014]). […] Cell viability was then evaluated by adding a non-lysing formulation of 0.5 mM D-Luciferin substrate and measuring luciferase activity for 0.5 s on a Varioskan™ Flash Multimode Reader (Thermo Scientific). The percent of viability was calculated as a function of drug concentration and IC50 values were derived by non-linear regression analysis and curve fitting (using GraphPad Prism 6.0).

CC(C)(CN)c1nc(-c2ccc(Cl)c(O)c2)c(-c2ccncc2)[nH]1 [MMV030084]
pIC50 ([1]; Plasmodium falciparum, DD2, 72 h, read-out: Mean IC50, 72 h ABS activity, Dd2-B2 wild-type, 72 h): 6.92
pIC50 ([1]; read-out: Mean IC50, 72 h ABS activity, Dd2-B2 wild-type, 72 h): 6.92
pIC50 ([2]; read-out: IC50, sexual gametocyte stage (Figure 1B)): < 4.43
pIC50 ([2]; CBG99-luciferase assay, 48 h, read-out: IC50, early stage gametocytes): < 4.40
pIC50 ([2]; CBG99-luciferase assay, 48 h, read-out: IC50, late stage gametocytes): < 4.40
